Assay results taken from patent US20110027372A1, “MULTIPARTICULATES COMPRISING LOW-SOLUBILITY DRUGS AND CARRIERS THAT RESULT IN RAPID DRUG RELEASE” (priority 2005, published 2011).

assay: Ratio of melting temperature to glass-transition temperature (Tm/Tg) of sugar alcohols; assay type: physicochemical
Source text: The inventors addressed this problem by using a sugar alcohol that rapidly crystallizes, resulting in improved recovery and efficiency during the multiparticulate-formation process. Without wishing to be bound by any particular theory, it is believed that the tendency for a sugar alcohol to crystallize from an aqueous solution is characterized by the ratio of the Tm of the sugar alcohol (in K) to the glass-transition temperature for the alcohol, Tg (in K) of the sugar alcohol. The driving force for crystallization is controlled primarily by Tm, while the kinetic barrier to crystallization is controlled primarily by the Tg. The ratio, Tm/Tg (in K/K), indicates the relative propensity for a sugar alcohol to crystallize. The inventors have discovered that sugar alcohols for which the ratio of Tm in K to Tg in K is at least about 1.5 can be effectively used to make multiparticulates with the desired properties. Preferably, this Tm/Tg ratio (K/K) is at least about 1.6, and more preferably at least about 1.65. Examples of suitable sugar alcohols include mannitol (Tm=438 K; Tg=234 K; Tm/Tg=1.87) and erythritol (Tm=394 K; Tg=231 K; Tm/Tg=1.71). Mixtures of such sugar alcohols may also be used.

Tm/Tg	SMILES
1.71 K/K	OC[C@@H](O)[C@@H](O)CO [Erythritol]
1.32 K/K	OC[C@@H](O)[C@@H](O[C@H]1O[C@H](CO)[C@@H](O)[C@H](O)[C@H]1O)[C@H](O)[C@@H](O)CO [Maltitol]
1.87 K/K	OC[C@@H](O)[C@@H](O)[C@H](O)[C@H](O)CO [Mannitol]
1.38 K/K	OC[C@@H](O)[C@@H](O)[C@H](O)[C@@H](O)CO [Sorbitol]
1.46 K/K	OC[C@@H](O)[C@H](O)[C@@H](O)CO [Xylitol]
